Columns and labels:
Type in all cases: in vivo
[1] = test system: dayflower, VA (Virginia (VA) dayflower, Commelina virginica); test: Test E pre-/postemergence greenhouse test
Excerpt: (§1) Seeds of plant species selected from corn (Zea mays), soybean (Glycine max), velvetleaf (Abutilon theophrasti), lambsquarters (Chenopodium album), poinsettia, wild (Euphorbia heterophylla), pigweed, palmer (Amaranthus palmeri), waterhemp (common waterhemp, Amaranthus rudis), surinam grass (Brachiaria decumbens), crabgrass, large (Digitaria sanguinalis), crabgrass, Brazil (Digitaria horizontalis), panicum, fall (Panicum dichotomiflorum), foxtail, giant (Setaria faberii), foxtail, green (Setaria viridis), goosegrass (Eleusine indica), johnsongrass (Sorghum halepense), ragweed (common ragweed, Ambrosia elatior), barnyardgrass (Echinochloa crus-galli), sandbur (southern sandbur, Cenchrus echinatus), arrowleaf sida (Sida rhombifolia), ryegrass, Italian (Lolium multiflorum), dayflower, VA (Virginia (VA) dayflower, Commelina virginica), field bindweed (Convolvulus arvensis), morningglory (Ipomoea coccinea), horseweed (Conyza canadensis), kochia (Kochia scoparia), nutsedge, yellow (Cyperus esculentus) and hairy beggarticks (Bidenspilosa), were planted into a silt loam soil and treated preemergence with test chemicals formulated in a non-phytotoxic solvent mixture which included a surfactant.
(§2) At the same time, plants selected from these crop and weed species and also waterhemp_RES1, (ALS & Triazine resistant common waterhemp, Amaranthus rudis), and waterhemp_RES2, (ALS & HPPD resistant common waterhemp, Amaranthus rudis) were planted in pots containing Redi-Earth® planting medium (Scotts Company, 14111 Scottslawn Road, Marysville, Ohio 43041) comprising spaghnum peat moss, vermiculite, wetting agent and starter nutrients were treated with postemergence applications of test chemicals formulated in the same manner. Plants ranged in height from 2 to 18 cm for postemergence treatments (1- to 4-leaf stage). Treated plants and controls were maintained in a greenhouse for 14 to 21 d, after which time all species were compared to controls and visually evaluated. Plant response ratings, summarized in Table E, are based on a scale of 0 to 100 where 0 is no effect and 100 is complete control. A dash (-) response means no test result.

[2] = test system: foxtail, green (Setaria viridis); test: Test E pre-/postemergence greenhouse test; settings: Preemergence
Excerpt: as §1, §2

[3] = test system: hairy beggarticks (Bidenspilosa); test: Test E pre-/postemergence greenhouse test
Excerpt: as §1, §2

[4] = test system: lambsquarters (Chenopodium album); test: Test E pre-/postemergence greenhouse test; settings: Preemergence
Excerpt: as §1, §2

[5] = test system: ryegrass, Italian (Lolium multiflorum); test: Test E pre-/postemergence greenhouse test
Excerpt: as §1, §2

[6] = test system: sandbur (southern sandbur, Cenchrus echinatus); test: Test E pre-/postemergence greenhouse test
Excerpt: as §1, §2

[7] = test system: corn (ZEAMD; Zea mays, cv. ‘Pioneer 1184’); test: Test M postemergence, mixtures of Cpd. No. 20 with isoxadifen-ethyl, cloquintocet-mexyl or Mefenpyr-diethyl; settings: approx. 14 d
Excerpt: (§3) This test evaluated the effect of mixtures of Cpd. No. 20 with isoxadifen-ethyl, or cloquintocet-mexyl, or Mefenpyr-diethyl on several plant species. Seeds of plant species selected from corn (ZEAMD; Zea mays, cv. ‘Pioneer 1184’), soybean (GLXMA; Glycine max, cv. Pioneer 35T58), winter wheat (TRZAW; Triticum aetivum, cv. Arezzo), winter barley (HORVW; Hordeum vulgare, cv. Boone), rice (ORYSS; Oryza sativa, cv. M202), and giant foxtail (SETFA; Setaria faberi) were planted in pots containing Redi-Earth® planting medium (Scotts Company, 14111 Scottslawn Road, Marysville, Ohio 43041) comprising spaghnum peat moss, vermiculite, wetting agent and starter nutrients and treated postemergence using test chemicals formulated in a non-phytotoxic solvent mixture which included a surfactant. Plants ranged in height from 7 to 10 cm and were in the one- to two-leaf stage for the postemergence treatment. Treated plants and untreated controls were maintained in a greenhouse for approximately 14 d, after which time all treated plants were compared to untreated controls and visually evaluated for injury. Plant response ratings, summarized in Tables M1 to M3, are based on a 0 to 100 scale where 0 is no effect and 100 is complete control. A dash (-) response means no test result. Test results are presented as a mean of 3 reps.

[8] = test system: giant foxtail (SETFA; Setaria faberi); test: as above; settings: approx. 14 d
Excerpt: as §3

[9] = test system: rice (ORYSS; Oryza sativa, cv. M202); test: as above; settings: approx. 14 d
Excerpt: as §3

[10] = test system: soybean (GLXMA; Glycine max, cv. Pioneer 35T58); test: as above; settings: approx. 14 d
Excerpt: as §3

[11] = test system: winter barley (HORVW; Hordeum vulgare, cv. Boone); test: as above; settings: approx. 14 d
Excerpt: as §3

[12] = test system: winter wheat (TRZAW; Triticum aetivum, cv. Arezzo); test: as above; settings: approx. 14 d
Excerpt: as §3

[13] = Cpd. No. 20 alone 125 g a.i./ha
[14] = Cpd. No. 20 alone 250 g a.i./ha
[15] = Cpd. No. 20 alone 375 g a.i./ha

**Q.** `Cc1ccc2ccc(C)c(-c3c(O)c(Cl)nn(C)c3=O)c2c1` [Cpd. No. 20, 6-chloro-4-(2,7-dimethyl-1-naphthalenyl)-5-hydroxy-2-methyl-3(2H)-pyridazinone] was tested. Which “Plant response rating, Dayflower, VA” value ([1]; Postemergence, 16 g ai/ha) did it give?
**A.** 30

**Q.** What about the “Plant response rating, Dayflower, VA” value ([1]; Postemergence, 31 g ai/ha) of the same compound?
**A.** 50

**Q.** And the “Plant response rating, Dayflower, VA” value ([1]; Postemergence, 62 g ai/ha)?
**A.** 60

**Q.** What about the “Plant response rating, Dayflower, VA” value ([1]; Postemergence, 125 g ai/ha) of the same compound?
**A.** 70

**Q.** What about the “Plant response rating, Dayflower, VA” value ([1]; Preemergence, 16 g ai/ha) of the same compound?
**A.** 0

**Q.** What about the “Plant response rating, Dayflower, VA” value ([1]; Preemergence, 31 g ai/ha) of the same compound?
**A.** 0

**Q.** And the “Plant response rating, Dayflower, VA” value ([1]; Preemergence, 62 g ai/ha)?
**A.** 0

**Q.** What about the “Plant response rating, Dayflower, VA” value ([1]; Preemergence, 125 g ai/ha) of the same compound?
**A.** 5

**Q.** And the “Plant response rating, Foxtail, Green” value ([2]; 16 g ai/ha)?
**A.** 35

**Q.** What about the “Plant response rating, Foxtail, Green” value ([2]; 31 g ai/ha) of the same compound?
**A.** 80

**Q.** And the “Plant response rating, Foxtail, Green” value ([2]; 62 g ai/ha)?
**A.** 100

**Q.** What about the “Plant response rating, Foxtail, Green” value ([2]; 125 g ai/ha) of the same compound?
**A.** 100

**Q.** And the “Plant response rating, Beggarticks” value ([3]; Postemergence, 16 g ai/ha)?
**A.** 90

**Q.** And the “Plant response rating, Beggarticks” value ([3]; Postemergence, 31 g ai/ha)?
**A.** 95

**Q.** What about the “Plant response rating, Beggarticks” value ([3]; Postemergence, 62 g ai/ha) of the same compound?
**A.** 95

**Q.** What about the “Plant response rating, Beggarticks” value ([3]; Postemergence, 125 g ai/ha) of the same compound?
**A.** 100

**Q.** And the “Plant response rating, Beggarticks” value ([3]; Preemergence, 16 g ai/ha)?
**A.** 20

**Q.** And the “Plant response rating, Beggarticks” value ([3]; Preemergence, 31 g ai/ha)?
**A.** 90

**Q.** And the “Plant response rating, Beggarticks” value ([3]; Preemergence, 62 g ai/ha)?
**A.** 95

**Q.** And the “Plant response rating, Beggarticks” value ([3]; Preemergence, 125 g ai/ha)?
**A.** 100

**Q.** What about the “Plant response rating, Lambsquarters” value ([4]; 16 g ai/ha) of the same compound?
**A.** 80

**Q.** And the “Plant response rating, Lambsquarters” value ([4]; 31 g ai/ha)?
**A.** 95

**Q.** And the “Plant response rating, Lambsquarters” value ([4]; 62 g ai/ha)?
**A.** 98

**Q.** What about the “Plant response rating, Lambsquarters” value ([4]; 125 g ai/ha) of the same compound?
**A.** 100

**Q.** What about the “Plant response rating, Ryegrass, Italian” value ([5]; Postemergence, 16 g ai/ha) of the same compound?
**A.** 70

**Q.** What about the “Plant response rating, Ryegrass, Italian” value ([5]; Postemergence, 31 g ai/ha) of the same compound?
**A.** 80

**Q.** And the “Plant response rating, Ryegrass, Italian” value ([5]; Postemergence, 62 g ai/ha)?
**A.** 85

**Q.** What about the “Plant response rating, Ryegrass, Italian” value ([5]; Postemergence, 125 g ai/ha) of the same compound?
**A.** 90

**Q.** What about the “Plant response rating, Ryegrass, Italian” value ([5]; Preemergence, 16 g ai/ha) of the same compound?
**A.** 0

**Q.** What about the “Plant response rating, Ryegrass, Italian” value ([5]; Preemergence, 31 g ai/ha) of the same compound?
**A.** 25

**Q.** What about the “Plant response rating, Ryegrass, Italian” value ([5]; Preemergence, 62 g ai/ha) of the same compound?
**A.** 98

**Q.** And the “Plant response rating, Ryegrass, Italian” value ([5]; Preemergence, 125 g ai/ha)?
**A.** 95

**Q.** And the “Plant response rating, Sandbur” value ([6]; Postemergence, 16 g ai/ha)?
**A.** 60

**Q.** What about the “Plant response rating, Sandbur” value ([6]; Postemergence, 31 g ai/ha) of the same compound?
**A.** 60

**Q.** And the “Plant response rating, Sandbur” value ([6]; Postemergence, 62 g ai/ha)?
**A.** 70

**Q.** And the “Plant response rating, Sandbur” value ([6]; Postemergence, 125 g ai/ha)?
**A.** 85

**Q.** And the “Plant response rating, Sandbur” value ([6]; Preemergence, 16 g ai/ha)?
**A.** 30

**Q.** And the “Plant response rating, Sandbur” value ([6]; Preemergence, 31 g ai/ha)?
**A.** 75

**Q.** And the “Plant response rating, Sandbur” value ([6]; Preemergence, 62 g ai/ha)?
**A.** 85

**Q.** What about the “Plant response rating, Sandbur” value ([6]; Preemergence, 125 g ai/ha) of the same compound?
**A.** 90

**Q.** And the “Plant response rating (0 to 100 scale) ZEAMD” value ([7]; Cpd. No. 20 alone 62 g a.i./ha)?
**A.** 0

**Q.** And the “Plant response rating (0 to 100 scale) ZEAMD” value [7, 13]?
**A.** 17

**Q.** What about the “Plant response rating (0 to 100 scale) ZEAMD” value [7, 14] of the same compound?
**A.** 28

**Q.** What about the “Plant response rating (0 to 100 scale) ZEAMD” value [7, 15] of the same compound?
**A.** 33

**Q.** And the “Plant response rating (0 to 100 scale) SETFA” value ([8]; Cpd. No. 20 alone 62 g a.i./ha)?
**A.** 96

**Q.** What about the “Plant response rating (0 to 100 scale) SETFA” value [8, 13] of the same compound?
**A.** 99

**Q.** What about the “Plant response rating (0 to 100 scale) SETFA” value [8, 14] of the same compound?
**A.** 100

**Q.** And the “Plant response rating (0 to 100 scale) SETFA” value [8, 15]?
**A.** 100

**Q.** And the “Plant response rating (0 to 100 scale) ORYSS” value ([9]; Cpd. No. 20 alone 62 g a.i./ha)?
**A.** 20

**Q.** What about the “Plant response rating (0 to 100 scale) ORYSS” value [9, 13] of the same compound?
**A.** 35

**Q.** And the “Plant response rating (0 to 100 scale) ORYSS” value [9, 14]?
**A.** 40

**Q.** What about the “Plant response rating (0 to 100 scale) ORYSS” value [9, 15] of the same compound?
**A.** 40

**Q.** What about the “Plant response rating (0 to 100 scale) GLXMA” value ([10]; Cpd. No. 20 alone 62 g a.i./ha) of the same compound?
**A.** 15

**Q.** What about the “Plant response rating (0 to 100 scale) GLXMA” value [10, 13] of the same compound?
**A.** 22

**Q.** What about the “Plant response rating (0 to 100 scale) GLXMA” value [10, 14] of the same compound?
**A.** 30

**Q.** And the “Plant response rating (0 to 100 scale) GLXMA” value [10, 15]?
**A.** 35

**Q.** What about the “Plant response rating (0 to 100 scale) HORVW” value ([11]; Cpd. No. 20 alone 62 g a.i./ha) of the same compound?
**A.** 0

**Q.** And the “Plant response rating (0 to 100 scale) HORVW” value [11, 13]?
**A.** 10

**Q.** What about the “Plant response rating (0 to 100 scale) HORVW” value [11, 14] of the same compound?
**A.** 15

**Q.** What about the “Plant response rating (0 to 100 scale) HORVW” value [11, 15] of the same compound?
**A.** 20

**Q.** And the “Plant response rating (0 to 100 scale) TRZAW” value ([12]; Cpd. No. 20 alone 62 g a.i./ha)?
**A.** 0

**Q.** What about the “Plant response rating (0 to 100 scale) TRZAW” value [12, 13] of the same compound?
**A.** 8

**Q.** What about the “Plant response rating (0 to 100 scale) TRZAW” value [12, 14] of the same compound?
**A.** 22

**Q.** And the “Plant response rating (0 to 100 scale) TRZAW” value [12, 15]?
**A.** 35

Reference: US12435044B2, “Pyridazinone herbicides and pyridazinone intermediates used to prepare a herbicide” (FMC Corporation, priority 2018, dated 2025)
